Results on one molecule are retold here after patent US7090780B2, “Bactericide for use in water treatment, method for water treatment and apparatus for water treatment” (Toray Industries, Inc., priority 2001, dated 2006).

For the series the following is noted: 50 ppm of sulfuric acid added to pressure-sterilized physiological salt solution (salt concentration 0.9 wt %).

Take `O=S(=O)(O)O` [sulfuric acid]: the “pH of the liquid” value came out at 3.2.
